Results taken from patent US20030105124A1, “Substituted benzolactam compounds” (priority 2000, published 2003).

Key:
gerbils = test: tapping test in gerbils; assay type: in vivo, gerbil; conditions: % inhibition at 0.3 mg/kg scoring
Procedure: More specifically, gerbils are lightly anesthetized with ether and the skull surface is exposed. […] Following injection, gerbils are placed in 1 L beaker individually and monitored for repetitive hind paw tapping. Some compounds prepared in the following Examples were tested in accordance with these testing methods.

Ca^2+ channel = target: T1, Ca^2+ channel (Rattus norvegicus, UniProt P22002); test: verapamil binding study in rat heart membrane preparation; conditions: 0.25 nM [^3H]desmethoxyverapamil, read-out: verapamil binding study (Ca^2+ channel binding affinity, adverse effect)
T1 construct: from tissue; host or cells: rat heart membrane preparation
T1 sequence (P22002 whole entry, other chains not shown): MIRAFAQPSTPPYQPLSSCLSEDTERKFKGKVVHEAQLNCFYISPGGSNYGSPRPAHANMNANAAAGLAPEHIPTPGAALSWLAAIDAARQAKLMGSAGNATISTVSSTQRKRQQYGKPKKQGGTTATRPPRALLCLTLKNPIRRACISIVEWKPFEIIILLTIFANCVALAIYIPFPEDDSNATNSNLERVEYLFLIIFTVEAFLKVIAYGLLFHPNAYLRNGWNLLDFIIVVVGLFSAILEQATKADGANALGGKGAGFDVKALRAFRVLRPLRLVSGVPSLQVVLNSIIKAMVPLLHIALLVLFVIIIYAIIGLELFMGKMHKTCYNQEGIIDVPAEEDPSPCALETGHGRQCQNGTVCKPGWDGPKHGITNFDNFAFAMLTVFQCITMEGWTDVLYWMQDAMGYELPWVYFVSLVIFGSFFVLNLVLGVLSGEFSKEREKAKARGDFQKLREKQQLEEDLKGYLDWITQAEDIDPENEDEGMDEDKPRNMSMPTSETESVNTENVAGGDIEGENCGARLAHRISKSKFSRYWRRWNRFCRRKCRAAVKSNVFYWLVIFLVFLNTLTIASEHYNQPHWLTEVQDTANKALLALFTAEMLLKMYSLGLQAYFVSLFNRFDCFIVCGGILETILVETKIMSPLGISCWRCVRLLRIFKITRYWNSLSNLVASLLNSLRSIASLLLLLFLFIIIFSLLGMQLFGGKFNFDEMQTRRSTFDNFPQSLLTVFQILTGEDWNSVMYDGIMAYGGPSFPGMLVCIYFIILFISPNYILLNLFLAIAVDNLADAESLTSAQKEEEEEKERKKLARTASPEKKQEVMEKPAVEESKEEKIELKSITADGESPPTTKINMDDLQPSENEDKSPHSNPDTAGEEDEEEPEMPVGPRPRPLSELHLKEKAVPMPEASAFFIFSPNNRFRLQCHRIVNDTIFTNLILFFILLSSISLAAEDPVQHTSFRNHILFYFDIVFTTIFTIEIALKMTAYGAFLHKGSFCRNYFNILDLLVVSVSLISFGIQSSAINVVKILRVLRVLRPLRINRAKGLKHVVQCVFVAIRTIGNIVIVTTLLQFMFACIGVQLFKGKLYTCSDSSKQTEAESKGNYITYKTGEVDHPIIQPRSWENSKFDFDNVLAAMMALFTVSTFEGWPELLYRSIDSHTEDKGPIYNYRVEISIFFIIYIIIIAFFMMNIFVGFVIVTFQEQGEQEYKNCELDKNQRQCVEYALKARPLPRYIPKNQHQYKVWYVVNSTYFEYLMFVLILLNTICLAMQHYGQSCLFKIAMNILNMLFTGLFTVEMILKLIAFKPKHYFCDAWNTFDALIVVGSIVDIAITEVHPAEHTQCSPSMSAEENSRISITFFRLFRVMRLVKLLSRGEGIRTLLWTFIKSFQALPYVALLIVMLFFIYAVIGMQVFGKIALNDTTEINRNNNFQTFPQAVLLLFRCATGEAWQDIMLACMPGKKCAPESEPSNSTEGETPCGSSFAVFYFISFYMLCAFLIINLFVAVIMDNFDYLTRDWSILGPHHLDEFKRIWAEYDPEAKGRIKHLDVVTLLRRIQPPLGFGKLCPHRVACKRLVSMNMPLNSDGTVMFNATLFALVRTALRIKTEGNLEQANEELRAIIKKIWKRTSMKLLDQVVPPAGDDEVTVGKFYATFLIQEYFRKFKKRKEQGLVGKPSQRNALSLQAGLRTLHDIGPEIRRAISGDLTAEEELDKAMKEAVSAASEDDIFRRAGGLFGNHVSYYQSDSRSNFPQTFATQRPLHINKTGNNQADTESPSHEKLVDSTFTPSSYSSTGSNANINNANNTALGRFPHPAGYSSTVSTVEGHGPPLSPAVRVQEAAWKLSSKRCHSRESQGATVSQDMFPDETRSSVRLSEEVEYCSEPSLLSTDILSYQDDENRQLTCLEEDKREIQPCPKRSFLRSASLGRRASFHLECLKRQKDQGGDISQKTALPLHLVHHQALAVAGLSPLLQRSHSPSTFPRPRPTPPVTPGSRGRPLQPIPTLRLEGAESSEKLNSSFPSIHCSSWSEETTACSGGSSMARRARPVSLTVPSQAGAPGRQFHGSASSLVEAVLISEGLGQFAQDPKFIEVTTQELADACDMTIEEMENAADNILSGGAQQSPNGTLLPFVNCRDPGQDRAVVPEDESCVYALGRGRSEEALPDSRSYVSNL
T1 sequence (P54290 25-944 partner limits assumed, other chains not shown): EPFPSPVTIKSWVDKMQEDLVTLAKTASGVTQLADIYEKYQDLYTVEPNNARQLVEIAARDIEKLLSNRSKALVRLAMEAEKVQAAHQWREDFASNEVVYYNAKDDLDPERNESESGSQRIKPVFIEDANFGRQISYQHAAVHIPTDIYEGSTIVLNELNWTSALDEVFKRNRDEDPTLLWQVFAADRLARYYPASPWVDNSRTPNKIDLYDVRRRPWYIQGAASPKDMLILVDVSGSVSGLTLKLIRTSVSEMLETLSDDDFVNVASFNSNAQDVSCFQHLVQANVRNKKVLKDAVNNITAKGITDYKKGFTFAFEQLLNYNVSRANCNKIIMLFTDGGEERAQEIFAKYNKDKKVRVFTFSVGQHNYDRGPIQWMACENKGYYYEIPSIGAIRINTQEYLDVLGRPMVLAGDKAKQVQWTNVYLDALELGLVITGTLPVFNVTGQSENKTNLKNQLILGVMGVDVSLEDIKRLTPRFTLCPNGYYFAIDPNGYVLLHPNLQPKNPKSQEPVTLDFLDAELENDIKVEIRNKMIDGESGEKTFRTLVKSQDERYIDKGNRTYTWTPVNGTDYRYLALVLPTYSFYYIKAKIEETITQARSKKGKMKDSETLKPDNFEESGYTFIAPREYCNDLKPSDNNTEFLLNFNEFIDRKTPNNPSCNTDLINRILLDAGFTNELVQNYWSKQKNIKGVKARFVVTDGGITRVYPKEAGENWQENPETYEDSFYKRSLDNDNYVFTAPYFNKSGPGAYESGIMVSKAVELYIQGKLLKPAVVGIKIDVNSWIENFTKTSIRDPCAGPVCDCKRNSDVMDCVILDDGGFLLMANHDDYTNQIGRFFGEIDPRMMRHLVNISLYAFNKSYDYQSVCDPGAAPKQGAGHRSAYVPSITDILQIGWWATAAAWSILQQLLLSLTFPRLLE
T1 sequence (P54290 945-1091 partner limits assumed, other chains not shown): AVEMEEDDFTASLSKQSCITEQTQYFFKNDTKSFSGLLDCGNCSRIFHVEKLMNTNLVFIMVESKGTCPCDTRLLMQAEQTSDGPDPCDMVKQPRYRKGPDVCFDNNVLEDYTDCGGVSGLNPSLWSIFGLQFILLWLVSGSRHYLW
Procedure: The adverse effect on Ca^2+ channel binding affinity is determined by verapamil binding study in rat heart membrane preparation. More specifically, verapamil binding study is performed as previously described by Reynolds et al., (J. Pharmacol. Exp. Ther., 237, 731, (1986)). Briefly, incubations are initiated by the addition of tissue to tubes containing 0.25 nM [^3H]desmethoxyverapamil and various concentrations of compounds (total volume; 1 ml). Nonspecific binding is defined as radioligand binding remaining in the presence of 3-10 μM methoxyverapamil.

[1] = target: T2, substance P receptor sites in IM-9 cells (Homo sapiens, UniProt P25103); test: IM-9 binding assay (inhibition of [3H]SP binding); conditions: human IM-9 cells, 0.56 nM [^3H]SP, 120 min at 4° C.
T2 construct: endogenous in cells; host or cells: IM-9 cells (human)
T2 sequence (P25103 whole entry): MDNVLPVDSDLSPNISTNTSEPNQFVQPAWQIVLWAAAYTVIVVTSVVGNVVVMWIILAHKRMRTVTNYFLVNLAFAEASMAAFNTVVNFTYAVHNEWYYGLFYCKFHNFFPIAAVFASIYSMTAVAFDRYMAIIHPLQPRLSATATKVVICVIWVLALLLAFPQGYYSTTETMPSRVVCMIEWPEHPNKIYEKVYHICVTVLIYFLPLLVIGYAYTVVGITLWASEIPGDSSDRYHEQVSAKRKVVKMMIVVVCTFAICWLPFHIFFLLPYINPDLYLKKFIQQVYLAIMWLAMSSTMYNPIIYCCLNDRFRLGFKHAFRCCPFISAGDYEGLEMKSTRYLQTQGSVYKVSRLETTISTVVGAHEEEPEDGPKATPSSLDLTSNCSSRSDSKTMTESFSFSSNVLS
Procedure: The activity of the compounds of the present invention, as substance P antagonists, is determined by their ability to inhibit the binding of substance P at its receptor sites in IM-9 cells employing radioactive ligands. The substance P antagonist activity of the herein described compounds is evaluated by using the standard assay procedure described by D. G. Payan et al., as reported in J. Immunolocy, 133, 3260 (1984). This method essentially involves determining the concentration of the individual compound required to reduce by 50% the amount of radiolabeled substance P ligands at their receptor sites in said isolated cow tissues or IM-9 cells, thereby affording characteristic IC50 values for each compound tested. More specifically, inhibition of [^3H]SP binding to human IM-9 cells by compounds are determined in assay buffer (50 mM Tris-HCl (pH 7.4), 1 mM MnCl2, 0.02% bovine serum albumin, bacitracin (40 μg/ml), leupeptin (4 μg/ml), chymostatin (2 μg/ml) and phosphoramidon (30 μg/ml)). The reaction is initiated by the addition of cells to assay buffer containing 0.56 nM [^3H]SP and various concentrations of compounds (total volume; 0.5 ml) and allowed to incubate for 120 min at 4° C. […] Nonspecific binding is defined as the radioactivity remaining in the presence of 1 μM SP. The filters are placed into tubes and counted using liquid scintillation counter.

Row | melting point [°C] | Compound | also measured
1 | 260 to 263 | COc1cc2ccc(=O)n(C)c2cc1CN[C@H]1CCCN[C@H]1c1ccccc1.Cl.Cl | 
2 | 236 to 238 | COc1cc2c(cc1CN[C@H]1CCCN[C@H]1c1ccccc1)N(C)C(=O)CCC2.Cl.Cl | 
3 | 243 to 244 | COc1cc2c(cc1CN[C@H]1CCCN[C@H]1c1ccccc1)CCC(=O)N2C.Cl.Cl | 
4 | 235 to 237 | COc1cc2c(cc1CN[C@H]1CCCN[C@H]1c1ccccc1)N(C)C(=O)OC2.Cl.Cl | 
5 | 219 to 221 | COc1cc2c(cc1CN[C@H]1CCCN[C@H]1c1ccccc1)CCC(=S)N2C.Cl.Cl | 

Continued, molecule first:

Row | Compound | melting point [°C] | also measured
6 | COc1cc2c(cc1CN[C@H]1C3CCN(CC3)[C@H]1C(c1ccccc1)c1ccccc1)N(C)C(=O)CC2 | 136 to 139 | 
7 | COc1cc2ccc(=O)n(C)c2cc1CN[C@H]1C2CCN(CC2)[C@H]1C(c1ccccc1)c1ccccc1 | 125 to 128 | 
8 | COc1cc2c(cc1CN[C@H]1CCCN[C@H]1c1ccccc1)N(C(C)C)C(=O)CC2.Cl.Cl | 257 to 260 | 
9 | CN1C(=O)CCc2cc(OC(F)F)c(CN[C@H]3CCCN[C@H]3c3ccccc3)cc21.Cl.Cl | 238 to 240 | 
10 | COc1cc2c(cc1CN[C@H]1CCCN[C@H]1c1ccccc1)N(CC(F)(F)F)C(=O)CC2.Cl.Cl | 243 to 245 | 
11 | COc1cc2c(cc1CN[C@H]1CCCN[C@H]1c1ccccc1)N(C)C(=S)CC2.Cl.Cl | 245 to 246 | 
12 | COc1cc2c(cc1CN[C@H]1CCCN[C@H]1c1ccccc1)C(C(F)(F)F)CC(=O)N2C.Cl.Cl (stereo partly drawn) | 255 to 256 | 
13 | COc1cc2c(cc1CN[C@H]1CCCN[C@H]1c1ccccc1)N(C)C(=O)SC2.Cl.Cl | 252 to 254 | 
14 | COc1cc2c(cc1CN[C@H]1CCCN[C@H]1c1ccccc1)C(C)(C)C(=S)N2C.Cl.Cl | 234 to 236 | 
15 | COc1cc2c(cc1CN[C@H]1CCCN[C@H]1c1ccccc1)N(C)C(=O)CC2.Cl.Cl [Compound 21, (2S,3S)-3-(6-Methoxy-1-methyl-2-oxo-1,2,3,4-tetrahydroquinolin-7-yl)methylamino-2-phenylpiperidine Dihydrochloride] | 265 to 268 | [Sar^9, Met(O2)^11]substance P-induced tapping test, % inhibition (gerbils): 52%; IC50 (Ca^2+ channel): > 300 nM; IC50 [1]: < 0.1 nM
